Key:
[1] = Encapsulation efficiency of LNP preparations (Ribogreen assay; Qubit, unlysed and lysed LNPs); type: physicochemical; settings: LNP preparation with the ionizable lipid, ABE mRNA:sgRNA 1:1, except 7-1, 7-2, 7-6, 7-10 (unlysed and lysed LNPs, Qubit)
Protocol: (§1) Lipid nanoparticle components were dissolved in 100% ethanol at specified lipid component molar ratios. mRNA encoding an adenine base editor and a chemically-modified sgRNA was dissolved at a mass ratio of 1:1 in 50 mM citrate, pH 4.0, resulting in a concentration of NA cargo of approximately 0.1 mg/mL.
(§2) LNP preparations were formulated with molar ratios of 47.5% Ionizable Lipid: 40% Cholesterol: 2.5% PEG2000-DMG: 10% DSPC total lipid to NA molar ratio of 6 to 12.
(§3) LNP preparations were formed by microfluidic mixing of the lipid and NA solutions using Precision Nanosystems NanoAssemblr Ignite series Instruments, according to the manufacturer's protocol.
With the exception of LNPs comprising ionizable lipids 7-1, 7-2, 7-6, and 7-10, RNA concentration and encapsulation efficiency were determined by Ribogreen assay (BioTek Synergy LX plate reader). For LNPs comprising ionizable lipids 7-1, 7-2, 7-6, and 7-10, RNA concentration was determined by Qubit microRNA kit (for siRNA) or HS RNA kit (for mRNA) per manufacturer's instructions, and encapsulation efficiency was determined by measuring unlysed and lysed LNPs.

[2] = LNP hydrodynamic diameter and polydispersity index by dynamic light scattering (DLS); type: physicochemical; settings: for Diameter (nm): hydrodynamic diameter of the LNP preparation with the ionizable lipid; for PDI: polydispersity index of the LNP preparation with the ionizable lipid
Protocol: (§4) A 3:1 ratio of aqueous to organic solvent was maintained during mixing using differential flow rates. After mixing, LNP preparations were collected and diluted in TBS (approximately 7:1 v/v), and further buffer exchange was conducted using dialysis in TBS at 4° C. for 8 to 24 hours against a 20 kDa filter. After this initial dialysis, each individual LNP preparation was characterized via dynamic light scattering (DLS) to measure size and polydispersity. pKa of a subpopulation of LNP preparations was measured via TNS assay.
DLS-LNP preparation hydrodynamic diameter and polydispersity index (PDI) was measured using high throughput dynamic light scattering (DLS) (DynaPro plate reader II, Wyatt). LNP preparations were diluted 1×PBS to an appropriate concentration and analyzed.

ALAS1 target site = assay: Base editing in liver by LNP-delivered ABE mRNA and sgRNA, targeted deep sequencing; type: in vivo; settings: LNP with the ionizable lipid, ABE mRNA + sgRNA targeting ALAS1 1:1; tail vein injection, Balb/c mice; 0.05 mg/kg; tissues four to six days post-dose
Protocol: as §1, §2, §3, §4
Male Balb/C mice aged approximately 8-12 weeks were used in the experiments described herein. […]
Age-matched mice were also used to administer vehicle (1×TBS) via tail vein injection as a control. Four to six days post-dose, tissues including liver, spleen, and bone marrow were collected. Base editing was determined by performing targeted deep sequencing analysis at the ALAS1 target site using extracted genomic DNA. Genomic DNA was isolated and fragmented and adapter-ligated using the Nextera DNA Flex Library Prep Kit (Illumina) using the 96-well plate Nextera indexing primers (Illumina), according to the manufacturer's instructions. Library size and concentration was confirmed by Fragment Analyzer (Agilent) and analyzed for whole genome sequencing using an Illumina HiSeq.

Encapsulation Efficiency (%) [1] [%]	Diameter (nm) [2] [nm]	PDI [2]	SMILES	% Editing in Liver (0.05 mpk) (ALAS1 target site) [%]
96.7	64.85	0.11	C=CCCCCCC(CCCCCC=C)OC(=O)CCCCCC(=O)OCC(COC(=O)CCC(CCCCC)OC(=O)NCCN1CCCC1)COC(=O)CCC(OCCCC/C=C\CC)OCCCC/C=C\CC (centres unmarked) [Compound 7-33, 1-(3-((4,4-bis(((Z)-oct-5-en-1-yl)oxy)butanoyl)oxy)-2-(((4-(((2-(pyrrolidin-1-yl)ethyl)carbamoyl)oxy)nonanoyl)oxy)methyl)propyl) 7-(pentadeca-1,14-dien-8-yl) heptanedioate]	6.5
98.1	54.35	0.05	C=CCCCCCC(CCCCCC=C)OC(=O)CCCCCC(=O)OCC(COC(=O)CCC(CCCCCC)OC(=O)NCCN1CCCC1)COC(=O)CCC(OCCCC/C=C\CC)OCCCC/C=C\CC (centres unmarked) [Compound 7-34, 1-(3-((4,4-bis(((Z)-oct-5-en-1-yl)oxy)butanoyl)oxy)-2-(((4-(((2-(pyrrolidin-1-yl)ethyl)carbamoyl)oxy)decanoyl)oxy)methyl)propyl) 7-(pentadeca-1,14-dien-8-yl) heptanedioate]	1.6
96.2	64.25	0.12	CC/C=C\CCCCOC(CCC(=O)OCC(COC(=O)CCCCCC(=O)OC(CCCCCCC)CCCCCCC)COC(=O)CCC(CCCCC)OC(=O)NCCN1CCCC1)OCCCC/C=C\CC (centres unmarked) [Compound 7-35, 1-(3-((4,4-bis(((Z)-oct-5-en-1-yl)oxy)butanoyl)oxy)-2-(((4-(((2-(pyrrolidin-1-yl)ethyl)carbamoyl)oxy)nonanoyl)oxy)methyl)propyl) 7-(pentadecan-8-yl) heptanedioate]	3.1
98.2	53.80	0.04	CC/C=C\CCCCOC(CCC(=O)OCC(COC(=O)CCCCCC(=O)OC(CCCCCCC)CCCCCCC)COC(=O)CCC(CCCCCC)OC(=O)NCCN1CCCC1)OCCCC/C=C\CC (centres unmarked) [Compound 7-36, 1-(3-((4,4-bis(((Z)-oct-5-en-1-yl)oxy)butanoyl)oxy)-2-(((4-(((2-(pyrrolidin-1-yl)ethyl)carbamoyl)oxy)decanoyl)oxy)methyl)propyl) 7-(pentadecan-8-yl) heptanedioate]	1.5
94.7	66.20	0.12	CC/C=C\CCCCOC(CCC(=O)OCC(COC(=O)CCC(CCCCC)OC(=O)NCCN1CCCC1)COC(=O)CCC(OCCCC/C=C\CC)OCCCC/C=C\CC)OCCCC/C=C\CC (centres unmarked) [Compound 7-37, 2-(((4-(((2-(pyrrolidin-1-yl)ethyl)carbamoyl)oxy)nonanoyl)oxy)methyl)propane-1,3-diyl bis(4,4-bis(((Z)-oct-5-en-1-yl)oxy)butanoate)]	12.0
99.1	60.25	0.06	CC/C=C\CCCCOC(CCC(=O)OCC(COC(=O)CCC(CCCCCC)OC(=O)NCCN1CCCC1)COC(=O)CCC(OCCCC/C=C\CC)OCCCC/C=C\CC)OCCCC/C=C\CC (centres unmarked) [Compound 7-38, 2-(((4-(((2-(pyrrolidin-1-yl)ethyl)carbamoyl)oxy)decanoyl)oxy)methyl)propane-1,3-diyl bis(4,4-bis(((Z)-oct-5-en-1-yl)oxy)butanoate)]	9.4
97.4	53.4	0.08	C=CCCCCCC(CCCCCC=C)COC(=O)CCCCC(=O)OCC(COC(=O)CCC(CCCCCC)OC(=O)NCCN1CCCC1)COC(=O)CCC(OCCCC/C=C\CC)OCCCC/C=C\CC (centres unmarked) [Compound 7-39, 3-((4,4-bis(((Z)-oct-5-en-1-yl)oxy)butanoyl)oxy)-2-(((4-(((2-(pyrrolidin-1-yl)ethyl)carbamoyl)oxy)decanoyl)oxy)methyl)propyl (2-(hept-6-en-1-yl)non-8-en-1-yl) adipate]	1.4
96.8	54.1	0.09	CC/C=C\CCCCOC(CCC(=O)OCC(COC(=O)CCCCCCOC(=O)C(CCCC)CCCCCC)COC(=O)CCC(CCCCCC)OC(=O)NCCN(C)C)OCCCC/C=C\CC (centres unmarked) [Compound 7-40, 3-((4,4-bis(((Z)-oct-5-en-1-yl)oxy)butanoyl)oxy)-2-(((7-((2-butyloctanoyl)oxy)heptanoyl)oxy)methyl)propyl 4-(((2-(dimethylamino)ethyl)carbamoyl)oxy)decanoate]	1.9
95.9	59.05	0.06	CC/C=C\CCCCOC(CCC(=O)OCC(COC(=O)CCCCCCOC(=O)C(CCCC)CCCCCC)COC(=O)CCC(CCCCCC)OC(=O)NCCN(CC)CC)OCCCC/C=C\CC (centres unmarked) [Compound 7-41, 3-((4,4-bis(((Z)-oct-5-en-1-yl)oxy)butanoyl)oxy)-2-(((7-((2-butyloctanoyl)oxy)heptanoyl)oxy)methyl)propyl 4-(((2-(diethylamino)ethyl)carbamoyl)oxy)decanoate]	4.5
97.2	74	0.13	CC/C=C\CCCCOC(CCC(=O)OCC(COC(=O)CCCCCCOC(=O)C(CCCC)CCCCCC)COC(=O)CCC(CCCCCC)OC(=O)NCCCN(CC)CC)OCCCC/C=C\CC (centres unmarked) [Compound 7-42, 3-((4,4-bis(((Z)-oct-5-en-1-yl)oxy)butanoyl)oxy)-2-(((7-((2-butyloctanoyl)oxy)heptanoyl)oxy)methyl)propyl 4-(((3-(diethylamino)propyl)carbamoyl)oxy)decanoate]	7.3
89.2	68.8	0.08	CC/C=C\CCCCOC(CCC(=O)OCC(COC(=O)CCCCCCOC(=O)C(CCCC)CCCCCC)COC(=O)CCC(CCCCCC)OC(=O)NCCN1CCCCC1)OCCCC/C=C\CC (centres unmarked) [Compound 7-44, 3-((4,4-bis(((Z)-oct-5-en-1-yl)oxy)butanoyl)oxy)-2-(((7-((2-butyloctanoyl)oxy)heptanoyl)oxy)methyl)propyl 4-(((2-(piperidin-1-yl)ethyl)carbamoyl)oxy)decanoate]	0.1
93.4	81.8	0.13	CC/C=C\CCCCOC(CCC(=O)OCC(COC(=O)CCCCCCOC(=O)C(CCCC)CCCCCC)COC(=O)CCC(CCCCCC)OC(=O)OCCCN(CC)CC)OCCCC/C=C\CC (centres unmarked) [Compound 7-45, 3-((4,4-bis(((Z)-oct-5-en-1-yl)oxy)butanoyl)oxy)-2-(((7-((2-butyloctanoyl)oxy)heptanoyl)oxy)methyl)propyl 4-(((3-(diethylamino)propoxy)carbonyl)oxy)decanoate]	3.4
93.7	82.35	0.13	CC/C=C\CCCCOC(CCC(=O)OCC(COC(=O)CCCCCCOC(=O)C(CCCC)CCCCCC)COC(=O)CCC(CCCCCC)OC(=O)OCC1CCCN(CC)C1)OCCCC/C=C\CC (centres unmarked) [Compound 7-46, 3-((4,4-bis(((Z)-oct-5-en-1-yl)oxy)butanoyl)oxy)-2-(((7-((2-butyloctanoyl)oxy)heptanoyl)oxy)methyl)propyl 4-((((1-ethylpiperidin-3-yl)methoxy)carbonyl)oxy)decanoate]	1.1
96.3	57	0.06	CC/C=C\CCCCOC(CCC(=O)OCC(COC(=O)CCCCCCOC(=O)C(CCCC)CCCCCC)COC(=O)CCC(CCCCCC)OC(=O)CCCN1CCCC1)OCCCC/C=C\CC (centres unmarked) [Compound 7-49, 3-((4,4-bis(((Z)-oct-5-en-1-yl)oxy)butanoyl)oxy)-2-(((7-((2-butyloctanoyl)oxy)heptanoyl)oxy)methyl)propyl 4-((4-(pyrrolidin-1-yl)butanoyl)oxy)decanoate]	6.6
